In brackets after ≈: the same amount, converted by molar mass.

Our source for the activation and solubility values is US11168087B2, “Substituted imidazo[1,2-b]pyridazines, substituted imidazo[1,5-b]pyridazines, related compounds, and their use in the treatment of medical disorders” (BIAL—R&D Investments, S.A., priority 2016, dated 2021).

Data set [1] has as its target T1, glucocerebrosidase (Gcase) (Homo sapiens, UniProt P04062).
T1 construct: micellar solution containing 10 nM GCase and 100 nM saposin C
T1 sequence (P04062 40-536): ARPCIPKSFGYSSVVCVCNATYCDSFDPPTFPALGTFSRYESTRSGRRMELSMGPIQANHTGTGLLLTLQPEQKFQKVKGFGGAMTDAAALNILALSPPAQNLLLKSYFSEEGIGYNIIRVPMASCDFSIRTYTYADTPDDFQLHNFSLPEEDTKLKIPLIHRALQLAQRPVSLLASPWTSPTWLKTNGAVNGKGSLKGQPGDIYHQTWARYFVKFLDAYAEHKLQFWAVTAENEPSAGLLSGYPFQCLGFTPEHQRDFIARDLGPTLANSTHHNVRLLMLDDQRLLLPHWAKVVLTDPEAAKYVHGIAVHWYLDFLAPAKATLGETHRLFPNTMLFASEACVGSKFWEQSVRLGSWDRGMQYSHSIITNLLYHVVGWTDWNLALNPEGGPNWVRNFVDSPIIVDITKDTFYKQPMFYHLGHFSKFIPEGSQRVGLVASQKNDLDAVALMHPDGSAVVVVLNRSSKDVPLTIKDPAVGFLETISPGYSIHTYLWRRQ
In words: Glucocerebrosidase (Gcase) activation assay, 4-methylumbelliferyl-beta-D-glucopyranoside substrate, with saposin C. In kind it is biochemical. To be noted: 0.25 h; for activation at 0.1 µM: read-out: Percent Gcase Activation 0.1 μM Test Compound; for activation at 1 µM: read-out: Percent Gcase Activation 1 μM Test Compound. In outline: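 Human GCase (10 nM) with 100 nM saposin C in Triton X-100/phosphatidylserine micelles, citrate-phosphate pH 4.7, preincubated with compound 30 min RT; 2 mM 4-MU-β-glucoside (substrate solution) added, 15 min RT, stopped with glycine pH 12.5, fluorescence 365/440 nm. Screened at 1.0 and 0.1 μM; 8-point curves from 5 μM top.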

Data set [2] is described as follows: Compound solubility in water. In kind it is physicochemical.

Regarding `CCCCCCOC1CCC(NC(=O)c2ncc3c(C)cc(C)nn23)CC1` (stereo not drawn), in data set [1], the activation at 0.1 µM is 5 to 20% and the activation at 1 µM was greater than 20%. In addition, the solubility (usually the dissolved amount per volume that the medium holds) in data set [2] was determined as 23.1 µg/mL (≈ 62 µM).
As for `Cc1cc(-c2cccnc2)nc2c(C(=O)NC(C)(C)C3CC3)nsc12`, in data set [1], the activation at 0.1 µM is less than 5% and the activation at 1 µM fell in the range of 5 to 20%. Besides, the solubility in data set [2] was found to be 0.7 µg/mL (≈ 1.99 µM).
As for `Cc1ccc(-c2cc(C)c3ncc(C(=O)N[C@@H](C4CC4)C(F)(F)F)n3n2)cn1` [(S)-6-(6-Methylpyridin-3-yl)-N-(1-cyclopropyl-2,2,2-trifluoroethyl)-8-methylimidazo[1,2-b]pyridazine-3-carboxamide], in data set [1], the activation at 0.1 µM is less than 5% and the activation at 1 µM is greater than 20%.
As to `Cc1cc(-c2cccc(F)c2)nn2c(C(=O)N[C@@H](C3CC3)C(F)(F)F)ncc12` [(S)—N-(1-Cyclopropyl-2,2,2-trifluoroethyl)-2-(3-fluorophenyl)-4-methylimidazo[1,5-b]pyridazine-7-carboxamide], in data set [1], the activation at 0.1 µM was greater than 20% and the activation at 1 µM is greater than 20%.
For `Cc1cc(N2CCN(C(C)C)C2=O)nn2c(C(=O)N[C@@H](C3CC3)C(F)(F)F)ncc12` [(S)—N-(1-Cyclopropyl-2,2,2-trifluoroethyl)-2-(3-isopropyl-2-oxoimidazolidin-1-yl)-4-methylimidazo[1,5-b]pyridazine-7-carboxamide], in data set [1], the activation at 0.1 µM was in the range of 5 to 20% and the activation at 1 µM was greater than 20%.
Take `Cc1cc(-c2cc(C)c3cnc(C(=O)N[C@@H](C4CC4)C(F)(F)F)n3n2)sn1` [(S)—N-(1-Cyclopropyl-2,2,2-trifluoroethyl)-4-methyl-2-(3-methylisothiazol-5-yl)imidazo[1,5-b]pyridazine-7-carboxamide]: in data set [1], the activation at 0.1 µM was in the range of 5 to 20% and the activation at 1 µM was greater than 20%.
With `Cc1cc(-c2ccc3ncn(C)c3c2)nn2c(C(=O)N[C@@H](C3CC3)C(F)(F)F)cnc12` [(S)—N-(1-Cyclopropyl-2,2,2-trifluoroethyl)-8-methyl-6-(1-methyl-1H-benzo[d]imidazol-6-yl)imidazo[1,2-b]pyridazine-3-carboxamide], in data set [1], the activation at 0.1 µM lay within 5 to 20% and the activation at 1 µM is greater than 20%.
Consider `Cc1cc(C)c2onc(C(=O)NC(C3CC3)C(F)(F)F)c2n1` (stereo not drawn) [N-(1-Cyclopropyl-2,2,2-trifluoroethyl)-5,7-dimethylisoxazolo[4,5-b]pyridine-3-carboxamide], for which, in data set [1], the activation at 0.1 µM is less than 5% and the activation at 1 µM was greater than 20%.
Turning to `Cc1cc(C)c2occ(C(=O)Nc3ccc4c(c3)CCC4)c2n1` [N-(2,3-Dihydro-1H-inden-5-yl)-5,7-dimethylfuro[3,2-b]pyridine-3-carboxamide], in data set [1], the activation at 0.1 µM lay in the range of 5 to 20% and the activation at 1 µM was greater than 20%.
Regarding `Cc1cc(C)c2snc(C(=O)Nc3ccc4c(c3)CCC4)c2n1` [N-(2,3-Dihydro-1H-inden-5-yl)-5,7-dimethylisothiazolo[4,5-b]pyridine-3-carboxamide], in data set [1], the activation at 0.1 µM is greater than 20% and the activation at 1 µM is greater than 20%.
In the case of `Cc1cc(C)c2onc(C(=O)Nc3ccc4c(c3)CCC4)c2n1` [N-(2,3-Dihydro-1H-inden-5-yl)-5,7-dimethylisoxazolo[4,5-b]pyridine-3-carboxamide], in data set [1], the activation at 0.1 µM is 5 to 20% and the activation at 1 µM is greater than 20%.
Consider `Cc1cc(C)c2onc(C(=O)NC(C)(C)C3CC3)c2n1` [N-(2-Cyclopropylpropan-2-yl)-5,7-dimethylisoxazolo[4,5-b]pyridine-3-carboxamide], for which, in data set [1], the activation at 0.1 µM lay in the range of 5 to 20% and the activation at 1 µM was greater than 20%.
For the compound `Cc1cc(N2CC(C(C)C)OC2=O)nn2c(C(=O)N[C@H](C3CC3)C(F)(F)F)cnc12` (stereo partly drawn) [N—((R)-1-Cyclopropyl-2,2,2-trifluoroethyl)-6-(5-isopropyl-2-oxooxazolidin-3-yl)-8-methylimidazo[1,2-b]pyridazine-3-carboxamide], in data set [1], the activation at 0.1 µM is 5 to 20% and the activation at 1 µM was greater than 20%.
Regarding `Cc1cc(N2CC(C(C)C)OC2=O)nn2c(C(=O)N[C@@H](C3CC3)C(F)(F)F)cnc12` (stereo partly drawn) [N—((S)-1-Cyclopropyl-2,2,2-trifluoroethyl)-6-(5-isopropyl-2-oxooxazolidin-3-yl)-8-methylimidazo[1,2-b]pyridazine-3-carboxamide], in data set [1], the activation at 0.1 µM was less than 5% and the activation at 1 µM is greater than 20%.
